In one assay the target is T1, ATR kinase (Homo sapiens, UniProt Q13535).
T1 construct: purchased Eurofins 14-953
In words: Inhibitory effect on ATR kinase activity (Caliper mobility shift, FAM-labeled RAD17 peptide substrate). It counts as biochemical. The procedure, abridged: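 Caliper mobility-shift assay with 1 nM ATR, FAM-labeled RAD17 peptide […] and 5 mM ATP in HEPES pH 7.5 with 10 mM MnCl2, run 3 h at 28 °C and stopped with EDTA. Compounds were tested in 10-point 3-fold dilutions from 1 µM. IC50 was fitted from % inhibition of substrate conversion versus blank control.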

A further assay concerns LoVo cells. In words: LoVo cell proliferation assay (CellTiter-Glo). It counts as cell-based. Conditions: Homo sapiens, LoVo, 120 h, maximum concentration 10 µM, 9 concentrations. The procedure, abridged:
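LoVo cells, 2,000 per well, were treated after overnight attachment with 9-point 3-fold dilutions from 10 µM for 5 days at 37 °C. Viability was read by CellTiter-Glo luminescence. Inhibition % was taken relative to DMSO control, and IC50 came from the concentration–inhibition curve.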

Where [1] appears, read: read-out: ATR kinase IC50, 1 nM ATR kinase (Eurofins), 28°C for 3 hours, maximum concentration 1 µM, 10 concentrations.
[2] abbreviates: read-out: LoVo IC50 (nM), LoVo cells, 2,000 cells per well, 5 days incubation, CellTiter-Glo.
Setting [3] is: 1 nM ATR kinase (Eurofins), 28°C for 3 hours, maximum concentration 1 µM, 10 concentrations, read-out: ATR kinase IC50.
[4] abbreviates: LoVo cells, 2,000 cells per well, 5 days incubation, CellTiter-Glo, read-out: LoVo IC50.

Like-named read-outs stand apart in the source and are kept apart here.

T1 sequence (Q13535 whole entry): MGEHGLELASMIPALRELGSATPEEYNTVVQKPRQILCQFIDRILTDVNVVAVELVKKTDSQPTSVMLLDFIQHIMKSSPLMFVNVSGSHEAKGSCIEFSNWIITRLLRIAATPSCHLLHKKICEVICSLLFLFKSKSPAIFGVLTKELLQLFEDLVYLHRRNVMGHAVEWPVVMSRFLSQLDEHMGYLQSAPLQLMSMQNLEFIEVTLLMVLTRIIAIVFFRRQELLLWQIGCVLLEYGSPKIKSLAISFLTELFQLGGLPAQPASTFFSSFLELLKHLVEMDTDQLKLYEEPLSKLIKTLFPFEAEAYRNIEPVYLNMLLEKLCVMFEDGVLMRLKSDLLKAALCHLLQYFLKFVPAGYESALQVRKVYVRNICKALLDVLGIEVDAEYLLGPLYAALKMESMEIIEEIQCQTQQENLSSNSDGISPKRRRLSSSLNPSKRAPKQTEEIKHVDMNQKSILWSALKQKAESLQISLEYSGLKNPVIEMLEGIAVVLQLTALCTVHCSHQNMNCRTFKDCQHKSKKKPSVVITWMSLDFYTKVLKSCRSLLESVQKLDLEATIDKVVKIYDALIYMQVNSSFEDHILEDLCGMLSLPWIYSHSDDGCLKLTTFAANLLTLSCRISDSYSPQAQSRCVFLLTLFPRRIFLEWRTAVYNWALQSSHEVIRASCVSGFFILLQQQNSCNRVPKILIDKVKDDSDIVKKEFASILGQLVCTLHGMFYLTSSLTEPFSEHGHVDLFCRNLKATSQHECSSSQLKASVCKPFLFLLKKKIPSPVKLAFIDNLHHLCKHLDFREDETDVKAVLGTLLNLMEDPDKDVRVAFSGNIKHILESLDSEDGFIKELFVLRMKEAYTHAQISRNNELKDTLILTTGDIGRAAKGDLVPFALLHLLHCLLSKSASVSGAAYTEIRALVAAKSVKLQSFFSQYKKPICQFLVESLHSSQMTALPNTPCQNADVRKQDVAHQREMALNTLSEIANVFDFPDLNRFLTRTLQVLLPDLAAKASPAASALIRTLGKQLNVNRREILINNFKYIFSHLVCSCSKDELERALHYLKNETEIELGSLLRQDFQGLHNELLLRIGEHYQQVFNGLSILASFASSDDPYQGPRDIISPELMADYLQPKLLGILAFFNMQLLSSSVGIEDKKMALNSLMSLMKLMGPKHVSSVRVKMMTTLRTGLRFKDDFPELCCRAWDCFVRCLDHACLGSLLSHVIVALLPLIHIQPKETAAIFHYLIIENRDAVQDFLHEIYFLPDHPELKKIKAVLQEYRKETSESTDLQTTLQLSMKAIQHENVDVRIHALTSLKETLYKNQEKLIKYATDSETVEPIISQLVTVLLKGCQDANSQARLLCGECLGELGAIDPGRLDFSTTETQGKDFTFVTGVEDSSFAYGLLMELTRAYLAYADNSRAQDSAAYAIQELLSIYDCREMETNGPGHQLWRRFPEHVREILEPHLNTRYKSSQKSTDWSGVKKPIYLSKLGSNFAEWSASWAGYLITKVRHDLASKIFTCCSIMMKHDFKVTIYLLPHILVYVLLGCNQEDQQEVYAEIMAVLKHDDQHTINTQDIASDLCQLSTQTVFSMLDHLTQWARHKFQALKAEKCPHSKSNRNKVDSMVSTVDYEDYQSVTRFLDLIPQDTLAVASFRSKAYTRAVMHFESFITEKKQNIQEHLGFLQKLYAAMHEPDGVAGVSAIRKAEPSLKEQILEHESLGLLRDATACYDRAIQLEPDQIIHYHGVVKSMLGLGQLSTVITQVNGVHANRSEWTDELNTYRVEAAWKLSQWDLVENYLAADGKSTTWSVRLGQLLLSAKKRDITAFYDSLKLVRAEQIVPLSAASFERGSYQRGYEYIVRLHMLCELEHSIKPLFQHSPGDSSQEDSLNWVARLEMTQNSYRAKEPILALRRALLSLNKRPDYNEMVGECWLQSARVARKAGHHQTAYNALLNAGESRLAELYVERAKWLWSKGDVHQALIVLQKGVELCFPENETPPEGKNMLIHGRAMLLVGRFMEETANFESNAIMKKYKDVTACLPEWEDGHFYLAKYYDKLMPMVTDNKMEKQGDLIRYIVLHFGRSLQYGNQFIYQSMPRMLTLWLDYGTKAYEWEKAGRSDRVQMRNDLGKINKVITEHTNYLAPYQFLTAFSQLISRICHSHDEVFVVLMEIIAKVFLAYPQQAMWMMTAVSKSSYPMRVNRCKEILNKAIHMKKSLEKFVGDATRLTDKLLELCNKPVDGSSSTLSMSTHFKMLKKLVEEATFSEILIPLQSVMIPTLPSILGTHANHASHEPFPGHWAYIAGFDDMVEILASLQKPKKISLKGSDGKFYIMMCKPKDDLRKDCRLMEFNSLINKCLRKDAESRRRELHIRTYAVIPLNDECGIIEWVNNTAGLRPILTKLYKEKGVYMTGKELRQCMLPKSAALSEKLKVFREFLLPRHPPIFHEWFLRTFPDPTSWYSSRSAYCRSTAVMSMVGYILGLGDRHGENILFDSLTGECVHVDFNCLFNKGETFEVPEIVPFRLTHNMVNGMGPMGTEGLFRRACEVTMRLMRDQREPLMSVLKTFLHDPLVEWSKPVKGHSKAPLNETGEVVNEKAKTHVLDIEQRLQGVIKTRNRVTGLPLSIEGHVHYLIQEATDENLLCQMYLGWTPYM
T1 sequence (Q8WXE1 whole entry partner): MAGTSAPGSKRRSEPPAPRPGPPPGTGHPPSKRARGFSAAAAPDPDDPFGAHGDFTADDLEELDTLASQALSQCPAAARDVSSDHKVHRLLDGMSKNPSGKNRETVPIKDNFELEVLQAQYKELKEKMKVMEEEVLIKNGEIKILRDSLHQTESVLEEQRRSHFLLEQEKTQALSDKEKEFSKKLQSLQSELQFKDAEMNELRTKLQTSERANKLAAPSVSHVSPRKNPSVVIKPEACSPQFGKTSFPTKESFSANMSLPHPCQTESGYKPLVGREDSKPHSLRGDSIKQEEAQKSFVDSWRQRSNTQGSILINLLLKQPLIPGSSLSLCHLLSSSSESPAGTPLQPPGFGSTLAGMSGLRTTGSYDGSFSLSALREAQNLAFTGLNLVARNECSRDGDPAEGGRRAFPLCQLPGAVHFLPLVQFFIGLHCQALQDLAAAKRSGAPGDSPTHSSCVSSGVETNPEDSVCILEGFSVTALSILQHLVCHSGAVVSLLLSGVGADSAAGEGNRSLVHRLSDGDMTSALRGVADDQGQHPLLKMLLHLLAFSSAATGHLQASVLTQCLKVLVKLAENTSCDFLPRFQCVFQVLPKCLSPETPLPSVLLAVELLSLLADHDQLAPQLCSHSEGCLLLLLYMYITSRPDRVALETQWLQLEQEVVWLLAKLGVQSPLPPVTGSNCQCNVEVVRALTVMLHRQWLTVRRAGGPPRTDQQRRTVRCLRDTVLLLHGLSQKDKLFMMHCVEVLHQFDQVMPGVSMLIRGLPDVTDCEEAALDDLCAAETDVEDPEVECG

Take `C[C@@H]1COCCN1c1cc2c3c(n1)c(-c1cc[nH]n1)nn3CCC(=O)N2C1CC(F)(F)C1` [Compound 109, (R)-6-(3,3-difluorocyclobutyl)-4-(3-methylmorpholinyl)-2-(1H-pyrazol-3-yl)-8,9-dihydro-1,3,6,9a-tetraazabenzo[cd]azulene-7(6H)-one]: the values for the IC50 at ATR kinase (setting [1]) and in the assay with LoVo cells (setting [2]) were 10 to 100 nM and 100 to 1000 nM, respectively.

On to `C[C@@H]1COCCN1c1cc2c3c(n1)c(-c1cc[nH]n1)nn3CCC(=O)N2C12CC(C1)C2` [Compound 110, (R)-6-(bicyclo[1.1.1]pentan-1-yl)-4-(3-methylmorpholinyl)-2-(1H-pyrazol-3-yl)-8,9-dihydro-1,3,6,9a-tetraazabenzo[cd]azulene-7(6H)-one], for which the IC50 on ATR kinase (setting [1]) is < 10 nM; in the assay with LoVo cells (setting [2]), < 100 nM.

Turning to `C[C@@H]1COCCN1c1cc2c3c(n1)c(-c1cc[nH]n1)nn3CCC(=O)N2C1(CF)CC1` [Compound 112, (R)-6-(1-(fluoromethyl)cyclopropyl)-4-(3-methylmorpholinyl)-2-(1H-pyrazol-3-yl)-8,9-dihydro-1,3,6,9a-tetraazabenzo[cd]azulene-7(6H)-one], the IC50 was < 10 nM at ATR kinase (setting [1]) and < 100 nM with LoVo cells (setting [2]).

For `COCC1(N2C(=O)CCn3nc(-c4cc[nH]n4)c4nc(N5CCOC[C@H]5C)cc2c43)CC1` [Compound 113, (R)-6-(1-(methoxymethyl)cyclopropyl)-4-(3-methylmorpholinyl)-2-(1H-pyrazol-3-yl)-8,9-dihydro-1,3,6,9a-tetraazabenzo[cd]azulene-7(6H)-one], the IC50 was 10 to 100 nM on ATR kinase (setting [1]) and 100 to 1000 nM in the assay with LoVo cells (setting [2]).

In the case of `C[C@@H]1COCCN1c1cc2c3c(n1)c(-c1cc[nH]n1)nn3CCC(=O)N2C1(CO)CC1` [Compound 114, (R)-6-(1-(hydroxymethyl)cyclopropyl)-4-(3-methylmorpholinyl)-2-(1H-pyrazol-3-yl)-8,9-dihydro-1,3,6,9a-tetraazabenzo[cd]azulene-7(6H)-one], the IC50 at ATR kinase (setting [1]) was < 10 nM; with LoVo cells (setting [2]) it was 100 to 1000 nM.

With `C[C@@H]1COCCN1c1cc2c3c(n1)c(-c1cc[nH]n1)nn3CCC(=O)N2CC12CC(F)(C1)C2` [Compound 115, (R)-6-((3-fluorobicyclo[1.1.1]pentan-1-yl)methyl)-4-(3-methylmorpholinyl)-2-(1H-pyrazol-3-yl)-8,9-dihydro-1,3,6,9a-tetraazabenzo[cd]azulene-7(6H)-one], the IC50 is < 10 nM on ATR kinase (setting [1]) and < 100 nM with LoVo cells (setting [2]).

`C[C@@H]1COCCN1c1cc2c3c(n1)c(-c1cc[nH]n1)nn3CCC(=O)N2CC1(C#N)CC1` [Compound 116, (R)-1-((4-(3-methylmorpholinyl)-7-oxo-2-(1H-pyrazol-3-yl)-8,9-dihydro-1,3,6,9a-tetraazabenzo[cd]azulene-6(7H)-yl)methyl)cyclopropane-1-carbonitrile]: the IC50 was in the range of 10 to 100 nM at ATR kinase (setting [1]) and 100 to 1000 nM in the assay with LoVo cells (setting [2]).

As to `CC1Cn2nc(-c3cc[nH]n3)c3nc(N4CCOC[C@H]4C)cc(c32)N(C(C)C)C1=O` (stereo partly drawn) [Compound 119, 6-isopropyl-8-methyl-4-((R)-3-methylmorpholino)-2-(1H-pyrazol-3-yl)-8,9-dihydro-1,3,6,9a-tetraazabenzo[cd]azulene-7(6H)-one], the IC50 on ATR kinase (setting [3]) was 10 to 100 nM; in the assay on LoVo cells (setting [4]), 100 to 1000 nM.

`CC(C)N1CCCn2nc(-c3cc[nH]n3)c3nc(N4CCOC[C@H]4C)cc1c32` [Compound 120, (R)-4-(6-isopropyl-2-(1H-pyrazol-3-yl)-6,7,8,9-tetrahydro-1,3,6,9a-tetraazabenzo[cd]azulen-4-yl)-3-methylmorpholine]: the figures for the IC50 on ATR kinase (setting [3]) and with LoVo cells (setting [4]) were 10 to 100 nM and 100 to 1000 nM, respectively.

Regarding `C[C@@H]1COCCN1c1cc2c3c(n1)c(-c1cc[nH]n1)nn3CCCN2S(C)(=O)=O` [Compound 121, (R)-3-methyl-4-(6-(methylsulfonyl)-2-(1H-pyrazol-3-yl)-6,7,8,9-tetrahydro-1,3,6,9a-tetraazabenzo[cd]azulen-4-yl)morpholine], the IC50 is 10 to 100 nM at ATR kinase (setting [3]) and < 100 nM in the assay with LoVo cells (setting [4]).

Values taken from patent EP4692090A1 (Shanghai Fosun Pharmaceutical (Group) Co., Ltd., priority 2023, dated 2024).
